According to PMC2192203 (The Journal of Experimental Medicine, 1995):

Experiments:
[1] = system: I-Ek MHC class II molecules; conditions: Fig. 2 A legend; control peptide; no reference given; cited from earlier work
[2] = biological target: I-Ed MHC class II molecules (Mus musculus, UniProt P01904+P01915); conditions: Fig. 2 B legend; control peptide; no reference given; cited from earlier work
[3] = system: lymph node cells from mice immunized with the peptide; conditions: syngeneic B10.A mice; cited from earlier work
[4] = system: T cells from Ld 61-80-primed B10.A mice; conditions: H-2k class II-restricted; cited from earlier work
[5] = system: MHC class II-restricted presentation by APCs; conditions: cited from earlier work
[6] = system: CD4+ T cell line P69.2 (Ed-restricted, Ld 61-80-specific); test: T cell line P69.2 proliferation assay; assay type: cell-based, mouse; conditions: for natural presentation of self-peptide: no exogenously added peptide
[7] = system: CD4+ T cell line B10.A-P11.2 (Ek-restricted, Ld 61-80-specific); test: T cell line B10.A-P11.2 proliferation assay; assay type: cell-based, mouse; conditions: no added peptide
[8] = system: lymph node cells from mice immunized with the peptide; test: Lymph node / spleen T cell proliferation assay of peptide-immunized mice; assay type: cell-based, mouse
[9] = system: BALB/c-dm2 lymph node T cells primed with Ld 61-80; test: T cell determinant mapping with overlapping 12 mers; assay type: cell-based, mouse; conditions: dm2 mice primed with Ld 61-80, single residue steps, Fig. 4

Substance: HEL 1-17: known binder peptide in the I-Ek competition assay (KVFGRCELAAAMKRHGL; UniProt P00698 19-35, looked up, fragment)
- binding to I-Ek (control designation) [1]: known binder

Substance: HEL 105-120: hen egg white lysozyme (HEL) 105-120 peptide known for its binding to Ed (MNAWVAWRNRCKGTDV; UniProt P00698 123-138, looked up, fragment)
- binding to I-Ed (control designation) [2]: known binder

Substance: EtLITQIAKGQEQWFILVNLR,T [Ld 61-80]
- T cell response induced [3]: potent MHC class II-restricted T cell responses
- core region of determinant (residues) [4]: 66-74
- in vitro presentation by BALB/c APCs ([5]; BALB/c APCs, self-MHC class II): regularly presented in vitro
- stimulation of Ld 61-80-specific class II-restricted T cell hybridoma ([5]; Ii-positive and -negative APCs): could be stimulated in the presence of both Ii- positive and -negative APCs
- TAP-1 requirement of class II presentation [5]: does not require a functional TAP-1 protein
- natural presentation of self-peptide ([6]; (B10.A x B10.D2) F1 APCs, Fig. 3 C): could not spontaneously process and present
- stimulation of P69.2 in presence of specific peptide ([6]; B10.GD splenocytes (lacking Ed) as APCs): could not stimulate
- natural presentation of self-peptide ([6]; BALB/c APCs, Fig. 3 B): continuously process and present
- stimulation of P69.2 by added peptide ([6]; dm2 APCs, 60 h, [3H]thymidine last 12 h, Fig. 3 B): required
- natural presentation of self-peptide ([7]; B10.A splenocytes, Fig. 3 A): did not naturally process
- natural presentation of self-peptide ([7]; B10.A(5R) APCs, Fig. 7): present spontaneously
- immunogenicity ([8]; (B10.A x B10.D2) F1 mice (Fig. 1 D)): immunogenic and therefore cryptic
- phenotype of self-peptide (cryptic or dominant) ([8]; A.TL and B10.MBR mice): cryptic
- immunogenicity ([8]; A/J mice (Table 1)): vigorous T cell responses
- phenotype of self-peptide (cryptic or dominant) ([8]; B10.A(5R) mice): dominant
- T cell proliferation after immunization ([8]; B10.A(5R) mice (Fig. 6), five mice tested individually): no T cell proliferation was detected
- immunogenicity ([8]; B10.AKM mice (Table 2)): immunogenic
- immunogenicity ([8]; B10.D2 mice (Table 1)): failed to respond
- immunogenicity ([8]; BALB/c mice (Fig. 1 B)): nonimmunogenic
- immunogenicity ([8]; DBA/2 mice (Table 1)): nonimmunogenic
- immunogenicity ([8]; dm2 mutant mice, not expressing Ld (Fig. 1 C)): immunogenic
- phenotype of self-peptide (cryptic or dominant) ([8]; parental H-2s and H-2b mice): dominant
- core region of determinant (residues) [9]: 69-76
